# According to patent publication US6706664B1, “Benzoxazole compounds, process for the preparation thereof and herbicides” (UBE Industries, Ltd., priority 1999, dated 2004):
# Columns and labels:
# Parameters in all cases: key: 0: normal development; 1: Less damaged; 2: Slightly damaged; 3: Moderately damaged; 4: Severely damaged; 5: All killed
# young rice plant = assay: Herbicidal test for paddy field; format: in vivo; details: paddy field pot, 500 g/ha dropwise at 1.5 leaf stage of barnyardgrass, 3 weeks, rank vs non-treated
# Experimental: (§1) Wagner pots, each having an area of 1/5000 are, were packed with Ube soil (alluvial soil) and planted with seeds or tubers of young rice plant, barnyardgrass, bulrush, flat sedge and monochoria. Then, the pots were filled with water to a depth of 3 cm.
# (§2) Each wettable powder of the desired compounds (I) shown in Table 1 prepared in accordance with Example 2 was diluted with water containing a surfactant (0.05%) and subjected to dropwise addition treatment by using pipet so that an effective concentration of the compound (I) in each herbicide became 500 g/ha at 1.5 leaf stage of barnyardgrass.
# (§3) These plants were controlled in a glass house at an average temperature of 25° C. for 3 weeks, and then herbicidal effects thereof were investigated.
# (§4) The herbicidal effects are evaluated according to the following 6 ranks as compared with non-treated district.
# (§5) (0: normal development, 1: Less damaged, 2: Slightly damaged, 3: Moderately damaged, 4: Severely damaged, 5: All killed).
# barnyardgrass [1] = assay: Herbicidal test for paddy field; format: in vivo, Echinochloa crusgalli; details: paddy field pot, 500 g/ha dropwise at 1.5 leaf stage of barnyardgrass, 3 weeks, rank vs non-treated
# Experimental: as §1, §2, §3, §4, §5
# bulrush = assay: Herbicidal test for paddy field; format: in vivo, Scrips juncoides; details: paddy field pot, 500 g/ha dropwise at 1.5 leaf stage of barnyardgrass, 3 weeks, rank vs non-treated
# Experimental: as §1, §2, §3, §4, §5
# monochoria = assay: Herbicidal test for paddy field; format: in vivo, Monochoria vaginalis; details: paddy field pot, 500 g/ha dropwise at 1.5 leaf stage of barnyardgrass, 3 weeks, rank vs non-treated
# Experimental: as §1, §2, §3, §4, §5
# corn [2] = assay: Soil treatment test for upland field; format: in vivo; details: 500 g/ha, glass house 25° C., 3 weeks
# Excerpt: as §5
# (§6) Wagner pots, each having an area of 1/5000 are, were packed with Ube soil (alluvial soil), and then each seed of corn, soybean, cotton, wheat, solgum, sugar beat, Large crabgrass, barnyardgrass, green foxtail, blackgrass, annual bluegrass, common lambsquartes, livid amaranth and velvetleaf were planted and covered with soil.
# (§7) Each wettable powder of the desired compounds (I) shown in Table 1 prepared in accordance with Example 2 was diluted with water containing a surfactant (0.05%) and uniformly sprayed on the surface of each soil so that an effective concentration of the compound (I) in each herbicide became 500 g/ha. These plants were controlled in a glass house at an average temperature of 25° C. for 3 weeks, and then herbicidal effects thereof were investigated.
# (§8) The herbicidal effects were evaluated according to the evaluation method described in the above (1).
# cotton = assay: Soil treatment test for upland field; format: in vivo; details: 500 g/ha, glass house 25° C., 3 weeks
# Excerpt: as §5, §6, §7, §8
# solgum [3] = assay: Soil treatment test for upland field; format: in vivo; details: 500 g/ha, glass house 25° C., 3 weeks
# Excerpt: as §5, §6, §7, §8
# soybean = assay: Soil treatment test for upland field; format: in vivo; details: 500 g/ha, glass house 25° C., 3 weeks
# Excerpt: as §5, §6, §7, §8
# sugar beat [4] = assay: Soil treatment test for upland field; format: in vivo; details: 500 g/ha, glass house 25° C., 3 weeks
# Excerpt: as §5, §6, §7, §8
# wheat [5] = assay: Soil treatment test for upland field; format: in vivo; details: 500 g/ha, glass house 25° C., 3 weeks
# Excerpt: as §5, §6, §7, §8
# Large crabgrass = assay: Soil treatment test for upland field; format: in vivo, Digitaria adscendens; details: 500 g/ha, glass house 25° C., 3 weeks
# Excerpt: as §5, §6, §7, §8
# barnyardgrass [6] = assay: Soil treatment test for upland field; format: in vivo, Echinochloa crusgalli; details: 500 g/ha, glass house 25° C., 3 weeks
# Excerpt: as §5, §6, §7, §8
# green foxtail = assay: Soil treatment test for upland field; format: in vivo, Setaria viridis; details: 500 g/ha, glass house 25° C., 3 weeks
# Excerpt: as §5, §6, §7, §8
# blackgrass = assay: Soil treatment test for upland field; format: in vivo, Alopecurus aegualis; details: 500 g/ha, glass house 25° C., 3 weeks
# Excerpt: as §5, §6, §7, §8
# annual bluegrass = assay: Soil treatment test for upland field; format: in vivo, Poa annua; details: 500 g/ha, glass house 25° C., 3 weeks
# Excerpt: as §5, §6, §7, §8
# common lambsquartes [7] = assay: Soil treatment test for upland field; format: in vivo, Chenopodium album; details: 500 g/ha, glass house 25° C., 3 weeks
# Excerpt: as §5, §6, §7, §8
# livid amaranth [8] = assay: Soil treatment test for upland field; format: in vivo, Amaranthus lividus; details: 500 g/ha, glass house 25° C., 3 weeks
# Excerpt: as §5, §6, §7, §8
# velvetleaf [9] = assay: Soil treatment test for upland field; format: in vivo, Abutilon theophrasti; details: 500 g/ha, glass house 25° C., 3 weeks
# Excerpt: as §5, §6, §7, §8
# corn [10] = assay: Foliar spread test for upland field; format: in vivo; details: foliar spray 500 ppm, 3 weeks, rank vs non-treated
# Excerpt: as §5
# (§9) Wagner pots, each having an area of 1/5000 are, were packed with volcanic ash soil and then each seed of corn, soybean, cotton, wheat, solgum, sugar beat, Large crabgrass, barnyardgrass, green foxtail, blackgrass, annual bluegrass, common lambsquartes, livid amaranth, velvetleaf and morning glory was planted, covered with soil and grown in a glass house at an average temperature of […] for about 2 weeks.
# (§10) Each wettable powder of the desired compounds (I) shown in Table 1 prepared in accordance with Example 2 was diluted to 500 ppm with water containing a surfactant (0.5%) and then uniformly sprayed on the above respective plants.
# (§11) After these plants were controlled in a glass house at an average temperature of 25° C. for 3 weeks, the herbicidal effects thereof were investigated.
# as §8
# solgum [11] = assay: Foliar spread test for upland field; format: in vivo; details: foliar spray 500 ppm, 3 weeks, rank vs non-treated
# Excerpt: as §5, §9, §10, §11, §8
# sugar beat [12] = assay: Foliar spread test for upland field; format: in vivo; details: foliar spray 500 ppm, 3 weeks, rank vs non-treated
# Excerpt: as §5, §9, §10, §11, §8
# wheat [13] = assay: Foliar spread test for upland field; format: in vivo; details: foliar spray 500 ppm, 3 weeks, rank vs non-treated
# Excerpt: as §5, §9, §10, §11, §8
# common lambsquartes [14] = assay: Foliar spread test for upland field; format: in vivo, Chenopodium album; details: foliar spray 500 ppm, 3 weeks, rank vs non-treated
# Excerpt: as §5, §9, §10, §11, §8
# livid amaranth [15] = assay: Foliar spread test for upland field; format: in vivo, Amaranthus lividus; details: foliar spray 500 ppm, 3 weeks, rank vs non-treated
# Excerpt: as §5, §9, §10, §11, §8
# velvetleaf [16] = assay: Foliar spread test for upland field; format: in vivo, Abutilon theophrasti; details: foliar spray 500 ppm, 3 weeks, rank vs non-treated
# Excerpt: as §5, §9, §10, §11, §8
Structure (SMILES),Effect Young rice plant (young rice plant),Effect Barnyardgrass (barnyardgrass [1]),Effect Bulrush (bulrush),Effect Monochoria (monochoria),Effects Corn (corn [2]),Effects Cotton (cotton),Effects Solgum (solgum [3]),Effects Soybean (soybean),Effects Sugar beat (sugar beat [4]),Effects Wheat (wheat [5]),Effects Large crabgrass (Large crabgrass),Effects Barnyardgrass (barnyardgrass [6]),Effects Green foxtail (green foxtail),Effects Annual bluegrass (annual bluegrass),Effects Common lambsquarters (common lambsquartes [7]),Effects Livid amaranth (livid amaranth [8]),Effects Velvetleaf (velvetleaf [9]),Effects Corn (corn [10]),Effects Solgum (solgum [11]),Effects Sugar beat (sugar beat [12]),other results
CCC(Oc1cccc(C(F)(F)F)c1)c1nc2ccc(Cl)cc2o1 (stereo not shown) [Compound 10],0,4,3,1,0,0,0,0,0,0,5,2,4,4,2,4,,,,,Effects Blackgrass (blackgrass): 2
CCCC(Oc1cccc(C#N)c1)c1nc2cc(F)c(Cl)cc2o1 (stereo not shown) [Compound 501],1,3,,3,,,,,,,,,,,,,,,,,
CCCC(Oc1ccc(F)c(C(F)(F)F)c1)c1nc2cc(S(C)(=O)=O)ccc2o1 (stereo not shown) [Compound 217],1,,2,4,0,1,0,0,5,0,5,,5,4,5,5,5,,,,Effects Blackgrass (blackgrass): 2
CCCC(Oc1cccc(C(F)(F)F)c1)c1nc2cc(S(C)(=O)=O)c(C)cc2o1 (stereo not shown) [Compound 489],,,,,1,0,0,0,5,0,2,,4,5,4,5,3,1,1,5,Effects Wheat (wheat [13]): 1; Effects Common lambsquarters (common lambsquartes [14]): 5; Effects Livid amaranth (livid amaranth [15]): 5; Effects Velvetleaf (velvetleaf [16]): 3
CCC(Oc1ccc(F)c(C(F)(F)F)c1)c1nc2cc(C#N)c(Cl)cc2o1 (stereo not shown) [Compound 517],2,3,3,3,0,0,0,0,5,0,3,3,4,,3,5,3,,,,
CCCCC(Oc1ccc(F)c(C(F)(F)F)c1)c1nc2cc(Cl)ccc2o1 (stereo not shown) [Compound 476],,,,,0,0,0,0,3,0,3,,4,4,3,5,2,1,0,5,Effects Wheat (wheat [13]): 1; Effects Common lambsquarters (common lambsquartes [14]): 5; Effects Livid amaranth (livid amaranth [15]): 5; Effects Velvetleaf (velvetleaf [16]): 2
CCC(Oc1cccc(C#N)c1)c1nc2cc(Cl)ccc2o1 (stereo not shown) [Compound 353],0,3,4,5,,,,,,,,,,,,,,,,,
CCC(Oc1ccc(F)c(C(F)(F)F)c1)c1nc2ccc(F)cc2o1 (stereo not shown) [Compound 27],0,1,4,5,0,0,0,0,1,0,4,1,4,3,3,5,1,,,,
CCC(Oc1cccc(C(F)(F)F)c1)c1nc2cc(S(C)(=O)=O)c(C)cc2o1 (stereo not shown) [Compound 490],,,,,,,,,,,,,,,,,,1,1,4,Effects Wheat (wheat [13]): 1; Effects Common lambsquarters (common lambsquartes [14]): 5; Effects Livid amaranth (livid amaranth [15]): 4; Effects Velvetleaf (velvetleaf [16]): 4
